According to ChEMBL document CHEMBL1151868, “Identification of pyrazolo[1,5-a]pyrimidine-3-carboxylates as B-Raf kinase inhibitors” (Bioorg Med Chem Lett, 2009):

Tests used:
[1] = molecular target: Serine/threonine-protein kinase B-raf (Homo sapiens, UniProt P15056); experiment: Inhibition of human recombinant B-Raf expressed in Sf9 cells assessed as inhibition of Mek1 phosphorylation
[2] = molecular target: Vascular endothelial growth factor receptor 2 (Homo sapiens, UniProt P35968); experiment: Inhibition of KDR
[3] = molecular target: RAC-alpha serine/threonine-protein kinase (Homo sapiens, UniProt P31749); experiment: Inhibition of AKT
[4] = Growth inhibition of human WM266.4 cells; type: functional, cell-based; settings: WM 266-4
[5] = molecular target: Mitogen-activated protein kinase kinase kinase 8 (Homo sapiens, UniProt P41279); experiment: Inhibition of Tpl2
[6] = molecular target: Insulin-like growth factor 1 receptor (Homo sapiens, UniProt P08069); experiment: Inhibition of IGFR1
Sequence of Insulin-like growth factor 1 receptor (P08069 31-736 limits assumed): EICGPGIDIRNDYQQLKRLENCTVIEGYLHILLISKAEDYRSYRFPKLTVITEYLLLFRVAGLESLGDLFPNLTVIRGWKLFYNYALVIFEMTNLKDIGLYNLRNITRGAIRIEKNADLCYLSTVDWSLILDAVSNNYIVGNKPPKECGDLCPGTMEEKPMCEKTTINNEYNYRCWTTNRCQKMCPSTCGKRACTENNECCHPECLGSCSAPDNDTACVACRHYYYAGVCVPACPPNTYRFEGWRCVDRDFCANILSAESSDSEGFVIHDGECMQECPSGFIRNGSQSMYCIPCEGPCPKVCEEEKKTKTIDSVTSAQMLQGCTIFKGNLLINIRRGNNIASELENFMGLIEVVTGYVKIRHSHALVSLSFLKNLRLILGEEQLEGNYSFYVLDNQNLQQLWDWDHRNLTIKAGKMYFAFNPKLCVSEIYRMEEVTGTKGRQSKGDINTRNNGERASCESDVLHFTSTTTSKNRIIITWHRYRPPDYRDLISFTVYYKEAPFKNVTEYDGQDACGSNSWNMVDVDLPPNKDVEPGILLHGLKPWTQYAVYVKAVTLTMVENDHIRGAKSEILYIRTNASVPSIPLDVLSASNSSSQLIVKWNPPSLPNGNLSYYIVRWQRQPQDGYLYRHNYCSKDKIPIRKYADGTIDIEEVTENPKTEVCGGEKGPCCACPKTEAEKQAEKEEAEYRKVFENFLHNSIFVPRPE
Sequence of Insulin-like growth factor 1 receptor (P08069 741-1367 limits assumed): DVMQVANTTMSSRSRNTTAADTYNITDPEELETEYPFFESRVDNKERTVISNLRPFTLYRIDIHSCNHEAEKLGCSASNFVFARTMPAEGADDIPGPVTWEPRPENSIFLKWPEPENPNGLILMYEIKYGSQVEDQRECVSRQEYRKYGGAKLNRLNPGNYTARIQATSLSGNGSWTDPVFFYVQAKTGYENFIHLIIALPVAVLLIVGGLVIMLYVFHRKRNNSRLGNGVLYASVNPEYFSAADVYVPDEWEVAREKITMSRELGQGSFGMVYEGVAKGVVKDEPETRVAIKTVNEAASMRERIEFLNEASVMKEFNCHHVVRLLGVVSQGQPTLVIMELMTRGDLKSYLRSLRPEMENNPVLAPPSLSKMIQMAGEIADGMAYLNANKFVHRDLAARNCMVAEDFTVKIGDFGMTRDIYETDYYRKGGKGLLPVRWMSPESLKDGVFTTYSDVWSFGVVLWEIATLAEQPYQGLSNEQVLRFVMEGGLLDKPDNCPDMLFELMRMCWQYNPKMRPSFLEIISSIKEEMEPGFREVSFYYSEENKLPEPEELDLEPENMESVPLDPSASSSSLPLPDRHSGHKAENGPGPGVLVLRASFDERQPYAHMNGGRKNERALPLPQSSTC

SW-620 = experiment: Growth inhibition of human SW620 cells; type: functional, cell-based
[7] = molecular target: Proto-oncogene tyrosine-protein kinase Src (Homo sapiens, UniProt P12931); experiment: Inhibition of SRC
Sequence of Proto-oncogene tyrosine-protein kinase Src (P12931 2-536 limits assumed): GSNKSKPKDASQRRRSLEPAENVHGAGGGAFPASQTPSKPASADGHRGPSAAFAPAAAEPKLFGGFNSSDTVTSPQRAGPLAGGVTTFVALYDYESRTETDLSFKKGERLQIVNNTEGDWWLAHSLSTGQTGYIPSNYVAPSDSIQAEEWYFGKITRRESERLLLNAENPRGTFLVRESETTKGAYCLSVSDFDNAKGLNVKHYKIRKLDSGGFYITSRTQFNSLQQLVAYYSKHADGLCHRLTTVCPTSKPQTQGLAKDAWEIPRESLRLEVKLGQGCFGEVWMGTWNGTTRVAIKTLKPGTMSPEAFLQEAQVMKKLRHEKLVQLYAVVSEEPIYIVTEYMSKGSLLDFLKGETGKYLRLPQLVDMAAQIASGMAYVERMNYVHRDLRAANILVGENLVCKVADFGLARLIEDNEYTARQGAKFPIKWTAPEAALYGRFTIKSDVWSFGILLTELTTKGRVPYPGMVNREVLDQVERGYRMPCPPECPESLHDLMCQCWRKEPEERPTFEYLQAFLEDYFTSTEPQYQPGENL

LoVo = experiment: Growth inhibition of human LoVo cells; type: functional, cell-based
A-375 = experiment: Growth inhibition of human A375 cells; type: functional, cell-based
[8] = molecular target: Tyrosine-protein kinase Lyn (Homo sapiens, UniProt P07948); experiment: Inhibition of LYN
Sequence of Tyrosine-protein kinase Lyn (P07948 whole entry): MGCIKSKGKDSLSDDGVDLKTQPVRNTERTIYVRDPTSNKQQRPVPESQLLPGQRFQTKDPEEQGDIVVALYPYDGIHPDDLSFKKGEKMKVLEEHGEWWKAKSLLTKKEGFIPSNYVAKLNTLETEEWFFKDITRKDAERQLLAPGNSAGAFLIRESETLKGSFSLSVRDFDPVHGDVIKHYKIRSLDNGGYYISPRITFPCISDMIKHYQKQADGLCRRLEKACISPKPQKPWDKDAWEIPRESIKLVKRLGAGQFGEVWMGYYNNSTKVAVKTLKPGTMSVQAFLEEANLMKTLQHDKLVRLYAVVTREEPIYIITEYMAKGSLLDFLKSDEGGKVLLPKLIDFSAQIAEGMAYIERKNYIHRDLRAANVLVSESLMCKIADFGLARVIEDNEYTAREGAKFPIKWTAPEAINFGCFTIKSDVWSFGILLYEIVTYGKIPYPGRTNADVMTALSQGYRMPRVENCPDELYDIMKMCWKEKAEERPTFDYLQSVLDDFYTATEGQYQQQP

HT-29 = experiment: Growth inhibition of human HT-29 cells; type: functional, cell-based
[9] = molecular target: Cyclin-dependent kinase 4 (Homo sapiens, UniProt P11802); experiment: Inhibition of CDK4
Sequence of Cyclin-dependent kinase 4 (P11802 whole entry): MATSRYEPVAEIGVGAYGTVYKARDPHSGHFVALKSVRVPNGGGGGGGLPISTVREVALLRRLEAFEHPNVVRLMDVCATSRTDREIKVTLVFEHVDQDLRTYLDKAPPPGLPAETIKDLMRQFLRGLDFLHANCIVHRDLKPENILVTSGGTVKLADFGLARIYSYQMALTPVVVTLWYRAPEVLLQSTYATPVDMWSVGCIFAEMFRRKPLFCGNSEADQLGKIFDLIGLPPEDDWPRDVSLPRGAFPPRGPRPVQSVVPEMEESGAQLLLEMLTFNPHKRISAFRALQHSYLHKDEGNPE

[10] = molecular target: Serine/threonine-protein kinase mTOR (Homo sapiens, UniProt P42345); experiment: Inhibition of mTOR
[11] = molecular target: Tyrosine-protein kinase BTK (Homo sapiens, UniProt Q06187); experiment: Inhibition of BTK
BXPC-3 = experiment: Growth inhibition of human BxPC3 cells; type: functional, cell-based
Caco-2 = experiment: Growth inhibition of human Caco-2 cells; type: functional, cell-based
[12] = molecular target: Phosphatidylinositol 4,5-bisphosphate 3-kinase catalytic subunit alpha isoform (Homo sapiens, UniProt P42336); experiment: Inhibition of PI3Kalpha
Sequence of Phosphatidylinositol 4,5-bisphosphate 3-kinase catalytic subunit alpha isoform (P42336 whole entry, canonical isoform): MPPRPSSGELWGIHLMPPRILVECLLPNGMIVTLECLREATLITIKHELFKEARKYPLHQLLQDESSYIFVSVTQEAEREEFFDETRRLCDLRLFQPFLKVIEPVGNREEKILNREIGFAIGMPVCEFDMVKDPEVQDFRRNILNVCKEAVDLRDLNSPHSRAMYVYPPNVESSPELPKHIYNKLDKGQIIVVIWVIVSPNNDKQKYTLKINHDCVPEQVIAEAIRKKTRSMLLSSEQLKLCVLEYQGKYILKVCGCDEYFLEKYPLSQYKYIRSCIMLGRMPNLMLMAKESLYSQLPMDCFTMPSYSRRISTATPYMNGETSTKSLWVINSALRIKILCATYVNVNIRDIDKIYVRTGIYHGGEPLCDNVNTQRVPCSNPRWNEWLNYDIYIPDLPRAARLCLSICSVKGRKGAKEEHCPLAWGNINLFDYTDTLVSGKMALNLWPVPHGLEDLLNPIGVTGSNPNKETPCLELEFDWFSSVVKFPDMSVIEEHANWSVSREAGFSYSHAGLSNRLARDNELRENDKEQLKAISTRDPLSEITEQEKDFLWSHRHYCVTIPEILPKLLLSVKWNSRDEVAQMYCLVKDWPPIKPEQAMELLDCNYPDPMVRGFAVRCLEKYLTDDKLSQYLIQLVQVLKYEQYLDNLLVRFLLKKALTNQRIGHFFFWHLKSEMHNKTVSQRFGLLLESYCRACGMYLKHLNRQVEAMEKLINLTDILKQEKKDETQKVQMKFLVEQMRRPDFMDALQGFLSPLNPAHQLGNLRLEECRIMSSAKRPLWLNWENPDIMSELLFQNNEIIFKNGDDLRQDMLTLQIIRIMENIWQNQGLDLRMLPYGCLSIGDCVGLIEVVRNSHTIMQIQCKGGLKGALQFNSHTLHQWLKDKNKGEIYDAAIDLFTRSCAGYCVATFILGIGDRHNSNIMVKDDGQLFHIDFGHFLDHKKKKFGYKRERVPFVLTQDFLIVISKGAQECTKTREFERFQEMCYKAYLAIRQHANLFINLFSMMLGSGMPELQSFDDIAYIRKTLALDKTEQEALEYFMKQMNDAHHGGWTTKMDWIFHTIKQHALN

[13] = molecular target: Tyrosine-protein kinase Lck (Homo sapiens, UniProt P06239); experiment: Inhibition of LCK
Sequence of Tyrosine-protein kinase Lck (P06239 whole entry): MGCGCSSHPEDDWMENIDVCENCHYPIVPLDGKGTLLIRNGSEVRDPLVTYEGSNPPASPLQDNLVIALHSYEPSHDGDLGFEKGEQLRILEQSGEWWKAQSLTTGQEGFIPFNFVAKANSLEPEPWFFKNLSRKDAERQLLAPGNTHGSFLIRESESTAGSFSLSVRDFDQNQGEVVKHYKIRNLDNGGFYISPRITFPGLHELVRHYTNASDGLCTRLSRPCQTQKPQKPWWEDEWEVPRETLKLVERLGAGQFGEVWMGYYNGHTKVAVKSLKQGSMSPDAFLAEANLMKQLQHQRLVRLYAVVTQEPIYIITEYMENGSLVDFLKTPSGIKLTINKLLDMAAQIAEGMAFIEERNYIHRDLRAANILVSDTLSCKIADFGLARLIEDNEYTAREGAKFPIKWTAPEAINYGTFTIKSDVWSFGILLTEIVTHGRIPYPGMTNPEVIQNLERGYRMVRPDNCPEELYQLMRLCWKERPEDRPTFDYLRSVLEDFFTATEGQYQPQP

Sequence of Serine/threonine-protein kinase B-raf (P15056 whole entry): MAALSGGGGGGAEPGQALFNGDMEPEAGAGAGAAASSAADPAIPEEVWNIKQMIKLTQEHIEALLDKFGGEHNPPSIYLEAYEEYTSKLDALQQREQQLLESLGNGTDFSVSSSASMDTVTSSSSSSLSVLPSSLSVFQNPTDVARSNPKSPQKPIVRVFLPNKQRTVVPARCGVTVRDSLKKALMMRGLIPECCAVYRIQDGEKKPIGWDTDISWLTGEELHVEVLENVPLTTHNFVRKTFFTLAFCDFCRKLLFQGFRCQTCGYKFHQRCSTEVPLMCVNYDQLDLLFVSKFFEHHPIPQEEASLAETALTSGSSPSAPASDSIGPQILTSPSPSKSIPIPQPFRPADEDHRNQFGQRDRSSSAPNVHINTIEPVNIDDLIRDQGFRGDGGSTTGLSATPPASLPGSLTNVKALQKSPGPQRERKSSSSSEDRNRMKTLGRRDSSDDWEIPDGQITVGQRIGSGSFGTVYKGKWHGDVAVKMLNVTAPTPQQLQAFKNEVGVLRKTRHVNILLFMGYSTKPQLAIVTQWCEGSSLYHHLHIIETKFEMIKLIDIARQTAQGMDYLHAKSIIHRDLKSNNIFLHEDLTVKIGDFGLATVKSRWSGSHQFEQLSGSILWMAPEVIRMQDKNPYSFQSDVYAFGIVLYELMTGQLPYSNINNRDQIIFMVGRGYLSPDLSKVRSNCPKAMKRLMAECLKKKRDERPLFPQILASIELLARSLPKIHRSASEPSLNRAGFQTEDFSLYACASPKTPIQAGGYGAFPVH

SMILES	IC50 [1]	other results
CCOC(=O)c1cnn2c(-c3cccc(NC(=O)c4ccc(OC)c(C(F)(F)F)c4)c3)ccnc12	1.03 µM	
CCOC(=O)c1cnn2c(-c3cccc(NC(=O)Nc4cc(C(F)(F)F)ccc4Cl)c3)ccnc12	> 10 µM	
CCOC(=O)c1cnn2c(-c3cccc(NC(=O)c4cccc(C#N)c4)c3)ccnc12	> 10 µM	
CCOC(=O)c1cnn2c(-c3cccc(NC(=O)Nc4ccc(F)c(C(F)(F)F)c4)c3)ccnc12	0.24 µM	
CCOC(=O)c1cnn2c(-c3cccc(NC(=O)c4ccc(Cl)c(C(F)(F)F)c4)c3)ccnc12	4.27 µM	
CCN(CC)CCNC(=O)c1cnn2c(-c3cccc(NC(=O)Nc4ccc(Cl)c(C(F)(F)F)c4)c3)ccnc12	0.17 µM	
CCOC(=O)c1cnn2c(-c3cccc(NC(=O)Nc4ccc(C)c(C(F)(F)F)c4)c3)ccnc12	0.36 µM	
CCOC(=O)c1cnn2c(-c3cccc(NC(=O)c4cccc(OC(F)(F)F)c4)c3)ccnc12	1.57 µM	
CCOC(=O)c1cnn2c(-c3cccc(NC(=O)Nc4ccc(C(F)(F)F)cc4)c3)ccnc12	3.6 µM	
CCOC(=O)c1cnn2c(-c3cccc(NC(=O)c4cc(C(F)(F)F)ccc4C)c3)ccnc12	> 10 µM	
CCOC(=O)c1cnn2c(-c3cccc(NC(=O)Nc4cccc(C(F)(F)F)c4)c3)ccnc12	0.54 µM	
O=C(Nc1cccc(-c2ccnc3c(C(=O)NCCN4CCOCC4)cnn23)c1)Nc1ccc(Cl)c(C(F)(F)F)c1	0.16 µM	
CCOC(=O)c1cnn2c(-c3cccc(NC(=O)Nc4ccc(Cl)c(C(F)(F)F)c4)c3)ccnc12	0.36 µM	
O=C(Nc1cccc(-c2ccnc3c(C(=O)OCC(F)(F)F)cnn23)c1)c1cccc(C(F)(F)F)c1	1.45 µM	
CCOC(=O)c1cnn2c(-c3cccc(NC(=O)c4ccccc4)c3)ccnc12	> 10 µM	
COCCCNC(=O)c1cnn2c(-c3cccc(NC(=O)Nc4ccc(Cl)c(C(F)(F)F)c4)c3)ccnc12	0.27 µM	
CCOC(=O)c1cnn2c(-c3cccc(NC(=O)c4cccc(C(F)(F)F)c4)c3)ccnc12	1.54 µM	IC50 [2]: > 10 µM; IC50 [3]: > 10 µM; IC50 [4]: 6.2 µM; IC50 [5]: > 10 µM; IC50 [6]: > 10 µM; IC50 (SW-620): 8.3 µM; IC50 [7]: > 10 µM; IC50 (LoVo): 3.87 µM; IC50 (A-375): 3.8 µM; IC50 [8]: > 10 µM; IC50 (HT-29): 7 µM; IC50 [9]: > 10 µM; IC50 [10]: > 10 µM; IC50 [11]: > 10 µM; IC50 (BXPC-3): 3.25 µM; IC50 (Caco-2): 6.6 µM; IC50 [12]: > 10 µM; IC50 [13]: > 10 µM
O=C(Nc1cccc(-c2ccnc3c(C(=O)NCCN4CCOCC4)cnn23)c1)c1cccc(C(F)(F)F)c1	6.34 µM	
CCOC(=O)c1cnn2c(-c3cccc(NC(=O)Nc4cccc(Cl)c4)c3)ccnc12	> 10 µM	
